Experimental data reported in PubChem BioAssay (NCI).
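Step 1: Grow cells in 96-well plates. Step 2: Expose to compound for 48 hours at 5 concentrations. Step 3: Interpolate endpoints linearly; if unreached, use highest concentration. GI50 = concentration required for 50% inhibition of growth. TGI: concentration producing complete growth inhibition.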

How the values were obtained:
Assay in all cases: NCI-60 cell line screen, 48 h
MDA-MB-231 breast = test system: MDA-MB-231 breast
SF-268 CNS = test system: SF-268 CNS
SK-MEL-2 melanoma = test system: SK-MEL-2 melanoma
HOP-92 NSCLC = test system: HOP-92 NSCLC
HCT-116 colon = test system: HCT-116 colon
CAKI-1 renal = test system: CAKI-1 renal
HT29 colon = test system: HT29 colon
SF-295 CNS = test system: SF-295 CNS
HCT-15 colon = test system: HCT-15 colon
IGROV1 ovarian = test system: IGROV1 ovarian
SK-MEL-5 melanoma = test system: SK-MEL-5 melanoma
SN12C renal = test system: SN12C renal
LOX IMVI melanoma = test system: LOX IMVI melanoma
SR leukemia = test system: SR leukemia
NCI-H23 lung = test system: NCI-H23 lung
BT-549 breast = test system: BT-549 breast
NCI/ADR-RES ovarian = test system: NCI/ADR-RES ovarian
786-0 renal = test system: 786-0 renal
CCRF-CEM leukemia = test system: CCRF-CEM leukemia
K-562 leukemia = test system: K-562 leukemia
OVCAR-3 ovarian = test system: OVCAR-3 ovarian
UACC-62 melanoma = test system: UACC-62 melanoma
HS 578T breast = test system: HS 578T breast
MCF7 breast = test system: MCF7 breast
U251 CNS = test system: U251 CNS
HCC-2998 colon = test system: HCC-2998 colon
T-47D breast = test system: T-47D breast
NCI-H522 lung = test system: NCI-H522 lung
HL-60(TB) leukemia = test system: HL-60(TB) leukemia
SNB-19 CNS = test system: SNB-19 CNS
MALME-3M melanoma = test system: MALME-3M melanoma
DU-145 prostate = test system: DU-145 prostate
RPMI-8226 leukemia = test system: RPMI-8226 leukemia
SF-539 CNS = test system: SF-539 CNS
MOLT-4 leukemia = test system: MOLT-4 leukemia
NCI-H226 lung = test system: NCI-H226 lung
OVCAR-5 ovarian = test system: OVCAR-5 ovarian
KM12 colon = test system: KM12 colon
HOP-62 NSCLC = test system: HOP-62 NSCLC
RXF 393 renal = test system: RXF 393 renal
MDA-MB-435 = test system: MDA-MB-435
SK-MEL-28 melanoma = test system: SK-MEL-28 melanoma
A549 NSCLC = test system: A549 NSCLC
OVCAR-8 ovarian = test system: OVCAR-8 ovarian
TK-10 renal = test system: TK-10 renal
UO-31 renal = test system: UO-31 renal
SW-620 colon = test system: SW-620 colon
ACHN renal = test system: ACHN renal
UACC-257 melanoma = test system: UACC-257 melanoma
PC-3 prostate = test system: PC-3 prostate
SNB-75 CNS = test system: SNB-75 CNS
OVCAR-4 ovarian = test system: OVCAR-4 ovarian
SK-OV-3 ovarian = test system: SK-OV-3 ovarian
COLO 205 colon = test system: COLO 205 colon

Compound: Cc1ccc(C)c(-c2csc(Nc3ccc(C)c(C)c3)n2)c1
- GI50 (MDA-MB-231 breast): > 100 µM
- TGI (MDA-MB-231 breast): > 100 µM
- GI50 (SF-268 CNS): 29.8 µM
- TGI (SF-268 CNS): > 100 µM
- GI50 (SK-MEL-2 melanoma): > 100 µM
- TGI (SK-MEL-2 melanoma): > 100 µM
- GI50 (HOP-92 NSCLC): 29 µM
- TGI (HOP-92 NSCLC): > 100 µM
- GI50 (HCT-116 colon): > 100 µM
- TGI (HCT-116 colon): > 100 µM
- GI50 (CAKI-1 renal): > 100 µM
- TGI (CAKI-1 renal): > 100 µM
- GI50 (HT29 colon): > 100 µM
- TGI (HT29 colon): > 100 µM
- GI50 (SF-295 CNS): 57.9 µM
- TGI (SF-295 CNS): > 100 µM
- GI50 (HCT-15 colon): 4.08 µM
- TGI (HCT-15 colon): > 100 µM
- GI50 (IGROV1 ovarian): 62.8 µM
- TGI (IGROV1 ovarian): > 100 µM
- GI50 (SK-MEL-5 melanoma): > 100 µM
- TGI (SK-MEL-5 melanoma): > 100 µM
- GI50 (SN12C renal): > 100 µM
- TGI (SN12C renal): > 100 µM
- GI50 (LOX IMVI melanoma): > 100 µM
- TGI (LOX IMVI melanoma): > 100 µM
- GI50 (SR leukemia): > 100 µM
- TGI (SR leukemia): > 100 µM
- GI50 (NCI-H23 lung): 65.7 µM
- TGI (NCI-H23 lung): > 100 µM
- GI50 (BT-549 breast): > 100 µM
- TGI (BT-549 breast): > 100 µM
- GI50 (NCI/ADR-RES ovarian): > 100 µM
- TGI (NCI/ADR-RES ovarian): > 100 µM
- GI50 (786-0 renal): 39.5 µM
- TGI (786-0 renal): > 100 µM
- GI50 (CCRF-CEM leukemia): > 100 µM
- TGI (CCRF-CEM leukemia): > 100 µM
- GI50 (K-562 leukemia): > 100 µM
- TGI (K-562 leukemia): > 100 µM
- GI50 (OVCAR-3 ovarian): 66.3 µM
- TGI (OVCAR-3 ovarian): > 100 µM
- GI50 (UACC-62 melanoma): > 100 µM
- TGI (UACC-62 melanoma): > 100 µM
- GI50 (HS 578T breast): 30.6 µM
- TGI (HS 578T breast): > 100 µM
- GI50 (MCF7 breast): 35.9 µM
- TGI (MCF7 breast): > 100 µM
- GI50 (U251 CNS): 52.9 µM
- TGI (U251 CNS): > 100 µM
- GI50 (HCC-2998 colon): > 100 µM
- TGI (HCC-2998 colon): > 100 µM
- GI50 (T-47D breast): > 100 µM
- TGI (T-47D breast): > 100 µM
- GI50 (NCI-H522 lung): 67.1 µM
- TGI (NCI-H522 lung): > 100 µM
- GI50 (HL-60(TB) leukemia): > 100 µM
- TGI (HL-60(TB) leukemia): > 100 µM
- GI50 (SNB-19 CNS): 77 µM
- TGI (SNB-19 CNS): > 100 µM
- GI50 (MALME-3M melanoma): > 100 µM
- TGI (MALME-3M melanoma): > 100 µM
- GI50 (DU-145 prostate): > 100 µM
- TGI (DU-145 prostate): > 100 µM
- GI50 (RPMI-8226 leukemia): > 100 µM
- TGI (RPMI-8226 leukemia): > 100 µM
- GI50 (SF-539 CNS): 44.6 µM
- TGI (SF-539 CNS): > 100 µM
- GI50 (MOLT-4 leukemia): > 100 µM
- TGI (MOLT-4 leukemia): > 100 µM
- GI50 (NCI-H226 lung): > 100 µM
- TGI (NCI-H226 lung): > 100 µM
- GI50 (OVCAR-5 ovarian): > 100 µM
- TGI (OVCAR-5 ovarian): > 100 µM
- GI50 (KM12 colon): > 100 µM
- TGI (KM12 colon): > 100 µM
- GI50 (HOP-62 NSCLC): 36.8 µM
- TGI (HOP-62 NSCLC): > 100 µM
- GI50 (RXF 393 renal): 24.2 µM
- TGI (RXF 393 renal): > 100 µM
- GI50 (MDA-MB-435): > 100 µM
- TGI (MDA-MB-435): > 100 µM
- GI50 (SK-MEL-28 melanoma): > 100 µM
- TGI (SK-MEL-28 melanoma): > 100 µM
- GI50 (A549 NSCLC): > 100 µM
- TGI (A549 NSCLC): > 100 µM
- GI50 (OVCAR-8 ovarian): 74.7 µM
- TGI (OVCAR-8 ovarian): > 100 µM
- GI50 (TK-10 renal): > 100 µM
- TGI (TK-10 renal): > 100 µM
- GI50 (UO-31 renal): > 100 µM
- TGI (UO-31 renal): > 100 µM
- GI50 (SW-620 colon): > 100 µM
- TGI (SW-620 colon): > 100 µM
- GI50 (ACHN renal): 82.2 µM
- TGI (ACHN renal): > 100 µM
- GI50 (UACC-257 melanoma): > 100 µM
- TGI (UACC-257 melanoma): > 100 µM
- GI50 (PC-3 prostate): 7 µM
- TGI (PC-3 prostate): > 100 µM
- GI50 (SNB-75 CNS): 15.8 µM
- TGI (SNB-75 CNS): 53.2 µM
- GI50 (OVCAR-4 ovarian): 48.3 µM
- TGI (OVCAR-4 ovarian): > 100 µM
- GI50 (SK-OV-3 ovarian): > 100 µM
- TGI (SK-OV-3 ovarian): > 100 µM
- GI50 (COLO 205 colon): > 100 µM
- TGI (COLO 205 colon): > 100 µM
